Key:
Human FXIIa = Human FXIIa (Homo sapiens (Human), UniProt P00748); assay: Factor XIIa (FXIIa) inhibitory activity, chromogenic substrate (Pefachrome XIIa) cleavage; assay type: biochemical; details: 10 min pre-incubation, Pefachrome XIIa 400 μM
Human alpha-thrombin = Human alpha-thrombin (Homo sapiens (Human), UniProt P00734); assay: Thrombin counterscreen for selectivity, fluorogenic substrate cleavage; assay type: biochemical; details: 10 min pre-incubation, Boc-Val-Pro-Arg-AMC 20 μM
[1] = system: Collagen-Induced Arthritis (CIA) in DBA/1 Mice; assay: Collagen-Induced Arthritis (CIA) in DBA/1 mice, model of rheumatoid arthritis; assay type: in vivo, mouse
Source text: For in vivo confirmation of efficacy, Example 35 was studied in a model of rheumatoid arthritis. Collagen-Induced Arthritis (CIA) in DBA/1 Mice is one of the most commonly used animal models of human rheumatoid arthritis. The joint inflammation which develops in CIA resembles inflammation in human patients with rheumatoid arthritis. Therapeutic agents that reduce rheumatoid arthritis in people (e.g. NSAIDs, corticosteroids, methotrexate, etc) are also efficacious in CIA, and efficacy in the mouse CIA model has excellent predictive value for efficacy in rheumatoid arthritis. CIA is induced by immunization with type II collagen emulsified in Complete Freund's Adjuvant, followed by a booster immunization with type II collagen emulsified in incomplete Freund's Adjuvant. Three to four weeks after immunization, inflammation develops in mouse paws, Treatment is initiated at, the time of immunization and continues for 6 weeks. […] CIA is scored blind, by a person unaware of both treatment and of previous scores for each animal. The animal's score is the total of all four paw scores on scale of 0-16, where each paw is scored as follows: 0 Normal paw; 1 One toe inflamed and swollen; 2 More than one toe, but not entire paw, inflamed and swollen, or mild swelling of entire paw; 3 Entire paw inflamed and swollen; 4 Very inflamed and swollen paw or ankylosed paw.

Sequence of Human FXIIa (P00748 373-615): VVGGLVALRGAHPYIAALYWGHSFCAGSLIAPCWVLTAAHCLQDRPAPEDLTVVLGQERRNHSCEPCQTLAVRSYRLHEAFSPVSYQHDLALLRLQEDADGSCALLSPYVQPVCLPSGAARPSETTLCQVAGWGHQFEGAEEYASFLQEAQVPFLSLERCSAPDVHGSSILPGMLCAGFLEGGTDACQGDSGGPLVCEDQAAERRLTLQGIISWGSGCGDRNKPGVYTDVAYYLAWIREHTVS
Sequence of Human FXIIa (P00748 20-372 partner): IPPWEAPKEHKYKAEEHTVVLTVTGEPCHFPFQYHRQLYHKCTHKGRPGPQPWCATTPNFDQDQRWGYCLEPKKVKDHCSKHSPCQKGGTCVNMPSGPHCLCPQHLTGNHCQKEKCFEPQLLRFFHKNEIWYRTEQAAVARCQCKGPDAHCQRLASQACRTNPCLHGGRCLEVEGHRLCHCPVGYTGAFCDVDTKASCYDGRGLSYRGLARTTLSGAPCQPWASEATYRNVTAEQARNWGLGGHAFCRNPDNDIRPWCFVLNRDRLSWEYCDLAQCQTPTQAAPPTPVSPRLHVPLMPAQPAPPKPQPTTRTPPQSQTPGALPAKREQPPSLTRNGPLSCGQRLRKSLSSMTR

IC50 (Human FXIIa) | IC50 (Human alpha-thrombin) | SMILES | Effect on disease phenotype compared to placebo ([1]; CIA model) | Maximum CIA score ± SD ([1]; scale 0-16, p value 0.0175 vs vehicle)
20 nM | 18000 nM | Cc1cccc2c1NCCC2C(=O)n1nc2c(c1N)CCN(S(C)(=O)=O)C2 (single isomer, unassigned) [Example 35, (S*)-(3-amino-6-(methylsulfonyl)-4,5,6,7-tetrahydropyrazolo[3,4-c]pyridine-2-yl)(8-methyl-1,2,3,4-tetrahydroquinolin-4-yl)methanone] | significantly ameliorated the disease phenotype compared to placebo | 5.6 ± 3.7
160 nM | > 35000 nM | Nc1c2c(nn1C(=O)C1CCNc3ccc(F)cc31)CN(c1ccccc1)CC2 (stereo not drawn) [Example 28, (3-amino-6-phenyl-4,5,6,7-tetrahydropyrazolo[3,4-c]pyridin-2-yl)(6-fluoro-1,2,3,4-tetrahydroquinolin-4-yl)methanone] | – | –
